{"source": "patent US20190350931A1", "about": "“COMBINATION THERAPY” (GlaxoSmithKline Intellectual Property Development Limited, priority 2016, published 2019)", "key": {"PRMT5/MEP50": {"target": "PRMT5/MEP50 (Homo sapiens, UniProt O14744)", "sequence (O14744 whole entry)": "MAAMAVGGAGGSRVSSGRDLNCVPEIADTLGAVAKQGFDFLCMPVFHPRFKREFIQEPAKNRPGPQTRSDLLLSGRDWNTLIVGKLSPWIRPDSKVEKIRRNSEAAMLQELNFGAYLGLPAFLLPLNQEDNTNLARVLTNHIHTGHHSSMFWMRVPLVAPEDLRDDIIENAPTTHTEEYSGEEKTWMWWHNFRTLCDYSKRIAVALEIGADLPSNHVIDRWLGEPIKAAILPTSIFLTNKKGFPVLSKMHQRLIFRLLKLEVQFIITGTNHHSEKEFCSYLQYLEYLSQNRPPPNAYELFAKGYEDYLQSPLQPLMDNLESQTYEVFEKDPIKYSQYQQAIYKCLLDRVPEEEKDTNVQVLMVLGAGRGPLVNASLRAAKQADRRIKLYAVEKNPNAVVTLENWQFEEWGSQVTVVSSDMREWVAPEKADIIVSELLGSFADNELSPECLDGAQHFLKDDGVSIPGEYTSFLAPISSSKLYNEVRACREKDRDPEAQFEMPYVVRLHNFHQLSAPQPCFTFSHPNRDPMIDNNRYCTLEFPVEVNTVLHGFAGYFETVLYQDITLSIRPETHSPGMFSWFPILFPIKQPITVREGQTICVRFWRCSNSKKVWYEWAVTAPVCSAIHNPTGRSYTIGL", "sequence (Q9BQA1 whole entry partner)": "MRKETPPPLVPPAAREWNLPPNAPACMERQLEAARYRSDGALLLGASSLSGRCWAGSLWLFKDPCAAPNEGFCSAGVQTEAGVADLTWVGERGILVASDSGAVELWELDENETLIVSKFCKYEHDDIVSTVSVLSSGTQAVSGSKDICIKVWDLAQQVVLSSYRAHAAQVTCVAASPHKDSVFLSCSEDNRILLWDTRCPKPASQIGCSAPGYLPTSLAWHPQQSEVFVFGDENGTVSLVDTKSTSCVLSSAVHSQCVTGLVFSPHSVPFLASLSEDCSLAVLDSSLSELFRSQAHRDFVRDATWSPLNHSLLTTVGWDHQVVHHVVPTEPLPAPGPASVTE", "assay": "PRMT5/MEP50 radioactive assay, 3H transfer from SAM to H4 peptide / protein substrate", "format": "biochemical", "conditions": "close analogs of Compound C"}, "[1]": {"system": "breast and MCL cell lines", "assay": "Longer-term (10-12 day) growth/death assay in breast and MCL cell lines", "format": "cell-based", "conditions": "for response upon prolonged exposure: SKBR3, MDA-MB-468 and MCF-7 cells, 7-10 days"}, "[2]": {"system": "lymphoma cell lines (Z138, Granta-519, DOHH2, RL)", "assay": "RNA-sequencing of lymphoma cell lines", "format": "cell-based", "description": "FIG. 12: Gene expression changes in lymphoma cell lines treated with a PRMT5 inhibitor. A. Quantification of differentially expressed (DE) genes in lymphoma cell lines after Compound B (0.1 and 0.5 μM) treatment (days 2 and 4). B. Overlap of DE genes across lymphoma lines.\nA. Mechanisms of regulation of cellular splicing (adapted from Bezzi M. et al.). B. Analysis of intron expression in lymphoma lines treated with 0.1 or 0.5 μM Compound B.\nA. Quantification of isoform switches in 4 lymphoma cell lines treated with Compound B (0.1 and 0.5 μM) for 2 and 4 days. B. Overlap of isoform switches in 4 lymphoma lines. C. List of genes that undergo alternative splicing in all 4 lymphoma lines (overlap of 4 cell lines).\nPRMT5 methylates histones and proteins involved in RNA processing and therefore PRMT5 inhibition is expected to have a profound effect on cellular mRNA homeostasis. To further decipher cellular mechanisms that are regulated by PRMT5 and contribute to the cellular response to PRMT5 inhibitors, global gene expression changes were evaluated in lymphoma models sensitive to PRMT5 inhibition. […]\nFirst, gene expression changes were evaluated in lymphoma lines treated with increasing concentrations of PRMT5 tool molecule for 2 and 4 days (FIG. 12). […] The relevance of these genes in the mechanism of cellular response to PRMT5 inhibition is being evaluated. […]"}, "[3]": {"system": "SDMA, MDM4 splicing, p53 in GBM and lymphoma cell lines", "assay": "SDMA, MDM4 splicing and p53 in GBM and lymphoma cell lines", "format": "cell-based", "conditions": "1 μM", "description": "Next, effects on cellular methylation and the p53 pathway were evaluated in GBM cells treated with a PRMT5 inhibitor by measuring SDMA, p53 and p21 protein levels and MDM4 splicing (FIG. 27). […] Alternative MDM4 splicing was detected in all cell lines but SF539 which are p53 mutant and have low basal expression of the long MDM4 isoform (FIG. 27, panel A). p53 levels increased in all cell lines, while the induction of p21 protein was observed only in cell lines that have wild-type p53 (Z138 (MCL), U87-MG and A172 (GBM)). […] The role of p53 in the response of GBM cell lines to PRMT5 inhibition will be further tested in future studies. Additionally, the effects of PRMT5 inhibition on cell cycle and neural differentiation in GBM models are being explored."}, "[4]": {"system": "Type I and Type II PRMTs and lysine methyltransferases (KMTs)", "assay": "Methyltransferase selectivity panel (19 enzymes)", "format": "biochemical", "conditions": "for selectivity for PRMT5/MEP50 over the other methyltransferases: PRMT5 tool compounds", "text": "FIG. 6: Phylogenetic tree highlighting the methyltransferases tested in the selectivity panel. […] PRMT9 is shown for relationship purposes only within the family tree and was not evaluated in the panel. Figure adapted from Richon V M. et al.\nPRMT9/FBXO11, which is the other Type II PRMT and the only PRMT to lack the THW loop, was not included due to the lack of a functional enzyme assay."}, "MDA-MB-468 xenograft": {"system": "MDA-MB-468 xenograft", "assay": "MDA-MB-468 triple negative breast cancer xenograft model", "format": "in vivo", "description": "Next, the efficacy of PRMT5 inhibition was evaluated in in vivo models of breast cancer."}, "GBM cell lines [5]": {"system": "GBM cell lines", "assay": "2D 6-day growth/death CTG assay in GBM cell lines", "format": "cell-based", "conditions": "with the exception of SF539"}, "[6]": {"system": "SDMA, MDM4 splicing, p53/p21 in Z138 cells", "assay": "Dose-response of MDM4 splicing, SDMA and p53/p21 in Z138 cells", "format": "cell-based"}, "[7]": {"system": "MDM4 splicing, p53 and p21 in MCL lines", "assay": "MDM4 splicing (RT-PCR) and p53/p21 western in MCL lines", "format": "cell-based", "conditions": "for p53 and p21 expression: Z138 cells, 200 nM Compound C, 5 μM Nutlin-3", "description": "To understand whether p53 activation is associated with MDM4 isoform switching, MDM4 alternative splicing was analyzed. […] The role of the p53 pathway in the biology of the response of p53 wild-type MCL cells to PRMT5 inhibition is being evaluated."}, "MCL cell lines": {"system": "MCL cell lines", "assay": "6-day growth/death assay in a panel of MCL lines", "format": "cell-based", "text": "FIG. 18: Activity of PRMT5 inhibitor and ibrutinib as single agents and in combination in MCL cell lines. […] C.\n• The strongest mechanistic link currently described between PRMT5 and cancer is in MCL. PRMT5 is frequently overexpressed in MCL and is highly expressed in the nuclear compartment where it increases levels of histone methylation and silences a subset of tumor suppressor genes. Importantly, cyclin D1, the oncogene that is translocated in the vast majority of MCL patients, associates with PRMT5 and through a cdk4-dependent mechanism increases PRMT5 activity. PRMT5 mediates the suppression of key genes that negatively regulate DNA replication allowing for cyclin D1-dependent neoplastic growth. PRMT5 knockdown inhibits cyclin D1-dependent cell transformation causing death of tumor cells."}, "[8]": {"system": "panel of cancer cell lines", "format": "cell-based", "text": "DLBCL-diffuse large B-cell lymphoma, GBM-glioblastoma, MCL-mantle cell lymphoma, MM-multiple myeloma\nThe cell lines were selected to represent tumor types where PRMT5 activity has been reported to regulate key pathways and/or cell growth and survival (such as lymphoma and MCL, glioma, breast and lung cancer lines)."}, "breast cancer lines": {"system": "breast cancer lines", "assay": "Propidium iodide FACS cell cycle analysis of breast cancer lines", "format": "cell-based"}, "GBM cell lines [9]": {"system": "GBM cell lines", "assay": "2D 14-day growth/death CTG assay in GBM cell lines", "format": "cell-based", "conditions": "only SF539 underwent apoptosis"}, "Z-138 MCL xenograft": {"system": "Z-138 MCL xenograft", "assay": "21-day efficacy study in Z-138 MCL xenograft model", "format": "in vivo", "description": "B. Quantified SDMA western data from tumors harvested at the end of the efficacy study (3 hours post last dose)."}, "[10]": {"conditions": "Z-138 (MCL) cells, all time points (days 3-10)"}, "[11]": {"conditions": "ZR-75-1 cells, all time points (days 3-12)"}}}
{"smiles": "O=C(NC[C@H](O)CN1CCc2ccccc2C1)c1ccnc(NC2CCC2)c1", "note": "[Compound B]", "values": [{"measurement": "inhibitory potency compared with Compound C", "setting": "PRMT5/MEP50", "value": "similar"}, {"measurement": "response upon prolonged exposure", "setting": "[1]", "value": "cytotoxic response"}, {"measurement": "response", "setting": "[1]; [10]", "value": "profound overall net cell death"}, {"measurement": "response", "setting": "[1]; [11]", "value": "cytostatic response"}, {"measurement": "isoform switching", "setting": "[2]; 0.1 and 0.5 μM, 2 and 4 days", "value": "induces isoform switching for a subset of genes"}, {"measurement": "intron splicing", "setting": "[2]; 0.1 or 0.5 μM", "value": "attenuates the splicing of a subset of introns"}, {"measurement": "MDM4 splicing", "setting": "[3]", "value": "induces alternative splicing of MDM4"}, {"measurement": "SDMA levels", "setting": "[3]", "value": "decreases SDMA levels"}, {"measurement": "p53", "setting": "[3]", "value": "activates p53"}, {"measurement": "selectivity for PRMT5/MEP50 over the other methyltransferases", "setting": "[4]", "value": "Selectivity for PRMT5/MEP50 over the other methyltransferases was also observed"}]}
{"smiles": "CC(=O)N1CCC(Nc2cc(C(=O)NC[C@H](O)CN3CCc4ccccc4C3)ncn2)CC1", "note": "[Compound C]", "values": [{"measurement": "tumor growth inhibition (TGI)", "setting": "MDA-MB-468 xenograft; 100 mg/kg BID", "value": 83, "unit": "%"}, {"measurement": "efficacy", "setting": "MDA-MB-468 xenograft; 100 mg/kg QD", "value": "not efficacious"}, {"measurement": "nature of the response", "setting": "GBM cell lines [5]", "value": "largely cytostatic"}, {"measurement": "MDM4 RNA splicing and SDMA/p53/p21 levels", "setting": "[6]", "value": "induces dose-dependent changes"}, {"measurement": "concentration above which SDMA levels were undetectable by Western blot", "setting": "[6]", "value": "above 8 nM"}, {"measurement": "concentration above which changes in MDM4 splicing and p53/p21 protein expression were apparent", "setting": "[6]", "value": "above 8 nM"}, {"measurement": "MDM4 isoform switching", "setting": "[7]; Z138 and JVM-2 cells (both p53 wild-type)", "value": "induced MDM4 isoform switching"}, {"measurement": "p53 and p21 expression", "setting": "[7]", "value": "increased p53 and p21 expression to similar levels"}, {"measurement": "response upon prolonged exposure", "setting": "[1]", "value": "cytotoxic response"}, {"measurement": "response", "setting": "[1]; [10]", "value": "profound overall net cell death"}, {"measurement": "response", "setting": "[1]; [11]", "value": "cytostatic response"}, {"measurement": "sensitivity (gIC50) of Z-138, Maver-1 and JVM-2", "setting": "MCL cell lines", "value": "low"}, {"measurement": "sensitivity of Mino, Jeko-1", "setting": "MCL cell lines", "value": "only moderately sensitive"}, {"measurement": "growth response of breast cancer cell lines", "setting": "[8]; 6-day growth/death assay", "value": "complete growth inhibition"}, {"measurement": "gIC50", "setting": "[8]; most sensitive lymphoma lines (MCL and DLBCL)", "value": "single digit"}, {"measurement": "cell death (increase in <2N)", "setting": "breast cancer lines; 3 out of 4 breast cancer lines, after 7-10 days of treatment", "value": "induction of cell death"}, {"measurement": "cell cycle distribution", "setting": "breast cancer lines; MCF-7 cells (p53 wild-type), day 2", "value": "accumulation of cells in G1 phase (2N)"}, {"measurement": "cell cycle distribution", "setting": "breast cancer lines; MDA-MB-468 and SKBR-3, day 7 or day 10", "value": "decrease in G1 (2N) phase"}, {"measurement": "cell cycle distribution", "setting": "breast cancer lines; ZR-75-1 cells (p53 wild-type)", "value": "minor effects on cell cycle distribution"}, {"measurement": "nature of the cytostatic/cytotoxic response upon longer exposure", "setting": "GBM cell lines [9]", "value": "did not change"}, {"measurement": "potency for any other tested enzyme", "setting": "[4]; FIG. 6 legend", "value": "> 10^−5 M"}, {"measurement": "body weight loss", "setting": "Z-138 MCL xenograft; all groups in all efficacy studies presented", "value": "no body weight loss"}, {"measurement": "TGI", "setting": "Z-138 MCL xenograft; summary for the xenograft models of mantle cell lymphoma", "value": "~100", "unit": "%"}]}
{"smiles": "O=C(NC[C@H](O)CN1CCc2ccccc2C1)c1cc(NC2COC2)ncn1", "note": "[Compound E]", "values": [{"measurement": "inhibitory potency compared with Compound C", "setting": "PRMT5/MEP50", "value": "similar"}, {"measurement": "selectivity for PRMT5/MEP50 over the other methyltransferases", "setting": "[4]", "value": "Selectivity for PRMT5/MEP50 over the other methyltransferases was also observed"}]}
{"smiles": "CC(=O)N1CCC(Nc2cc(C(=O)NC[C@H](O)CN3CCc4ccccc4C3)ccn2)CC1", "note": "[Compound F]", "values": [{"measurement": "inhibitory potency compared with Compound C", "setting": "PRMT5/MEP50", "value": "similar"}, {"measurement": "selectivity for PRMT5/MEP50 over the other methyltransferases", "setting": "[4]", "value": "Selectivity for PRMT5/MEP50 over the other methyltransferases was also observed"}]}
{"smiles": "COc1ccc(C2=N[C@@H](c3ccc(Cl)cc3)[C@@H](c3ccc(Cl)cc3)N2C(=O)N2CCNC(=O)C2)c(OC(C)C)c1", "note": "[Nutlin-3, reference compound]", "values": [{"measurement": "p53 and p21 expression", "setting": "[7]", "value": "increased p53 and p21 expression to similar levels"}]}
